The text below walks through data of paper PMC11137182, “Selective and brain-penetrant ACSS2 inhibitors target breast cancer brain metastatic cells” (Frontiers in Pharmacology, 2024).

In general, CLint scaled refers to a measure of how fast metabolising enzymes remove a compound, apart from limits set by blood flow. As usually defined, the microsomal CLint is a measure of how fast metabolising enzymes remove a compound, apart from limits set by blood flow. By half-life is commonly meant how long it takes for the measured level to halve. Higher therefore signals slow decline. A word on the koff: it is a measure of how fast the partners let go of each other. The term kon denotes a measure of how fast the partners come together. As a reminder, the IC50 is the concentration that gives 50% inhibition. What is called Papp A→B is the apparent permeability from the apical to the basolateral side of a cell layer.

One data set relates to MDA-MB-231BR cells. As to the kind of experiment: Clonogenic survival assay. It counts as cell-based. Conditions: 100 μM, 48 h treatment, 10 days growth. As to the method:
Triple-negative brain trophic cells MDA-MB-231BR and 4T1BR cells were a kind gift from Dr. Patricia Steeg (Center for Cancer Research, National Cancer Institute) ([Achrol et al., 2019]). Both cell lines were cultured in DMEM supplemented with 10% fetal bovine serum (FBS), 5% 10,000 Units/mL Penicillin-10,000 μg/mL Streptomycin, and 5% 200 mM L-Glutamine. For crystal violet staining, 5 × 10^4 cells were plated and subjected to the treatments as described in the individual figures and then stained with 0.5% crystal violet prepared in a 1:1 methanol-water solution followed by PBS washes. ACSS2 inhibitors were dissolved in 100% ultra-pure DMSO.
To assess clonogenic survival, 1 × 10^5 cells were seeded into a 6-well plate until 70%–80% confluency and treated for 48 h with analogs at 100 uM (unless otherwise stated in the figure legend). After 48 h, cells were trypsinized and counted using hemocytomer, and 1 × 10^4 cells per treatment were plated into a 6-well plate with fresh culture medium and allowed to grow for 10 days. Following 10-day incubation, cells were washed twice with PBS, stained with crystal violet for 30 min, and washed with dH2O twice. Colonies >50mircons were counted. For crystal violet staining, 0.5% crystal violet was prepared in a 1:1 methanol-water solution.

Data set [1] in a line: Human liver microsome stability. The conditions noted are these: for half-life: Human Liver Microsome Stability T1/2, human liver microsomes.
Data set [2] addresses T1, ACSS2 (Homo sapiens, UniProt Q9NR19).
T1 construct: His-tag (N); His-tag (C); made in house; host or cells: E. coli BL21 (DE3) RIL
As to the kind of experiment: SPR binding to immobilized ACSS2. The conditions noted are these: mean; for koff / kon: 1:1 binding model. Here is the method:
Overproduction of ACSS2 was achieved using a prokaryotic expression system. […] The bacterial expressions were then spun down, the supernatant discarded, and the pellets resuspended in 50 mM Tris HCl pH8.0, 800 mM NaCl, 5 mM Imidazole, 2 mM MgCl2, 10% Glycerol, 0.1 mg/mL Lysozyme, 1 mM Protease inhibitor (PMSF). After the cells were lysed via sonication, the sample was subjected to ultracentrifugation, and the clarified lysate was applied to a 5 mL Talon cobalt resin affinity column (Clonetech Laboratories, Mountain View, CA). The bound protein was washed with 300 mL wash buffer 1 (20 mM Tris HCl pH8.0, 800 mM NaCl, 15 mM Imidazole, 5 mM MgCl2, 10% Glycerol, 0.1% CHAPS) and 300 mL wash buffer 2 (20 mM Tris HCl pH8.0, 400 mM NaCl, 18 mM Imidazole, 5 mM MgCl2, 10% Glycerol) prior elution with 20 mM Tris HCl pH8.0, 400 mM NaCl, 300 mM Imidazole, 2 mM MgCl2, 5% Glycerol. Eluted ACSS2 was then dialyzed overnight into 20 mM Tris HCl pH8.0, 150 mM NaCl, 5% Glycerol, concentrated and applied to a Superdex S-200 (16/600) using the same buffer without Glycerol. ACSS2 fractions were pooled, concentrated to 3 mg/mL, aliquoted, and stored at −80°C. hACSS1 was obtained from a commercial vendor (www.mybiosource.com).
All binding assays were performed on a ProteOn XPR36 SPR Protein Interaction Array System (Bio-Rad Laboratories, Hercules, CA, United States). The instrument temperature was set at 25°C for all kinetic analyses. ProteOn GLH sensor chips were preconditioned with two short pulses each (10 s) of 50 mM NaOH, 100 mM HCl, and 0.5% sodium […]. Then, the system was equilibrated with running buffer (1x PBS pH 7.4, 3% DMSO, and 0.005% polysorbate 20). The surface of a GLH sensor chip was activated with a 1:100 dilution of a 1:1 mixture of 1-ethyl-3-(3-dimethylaminopropyl) carbodiimide hydrochloride (0.2 M) and sulfo-N-hydroxysuccinimide (0.05 M). Immediately after chip activation, the human ACSS2 or hACSS1 proteins were prepared at a concentration of 10 μg/mL in 10 mM sodium acetate, pH 5.5, and injected across ligand flow channels for 5 min at a flow rate of 30 μL/min. Then, after unreacted protein had been washed out, excess active ester groups on the sensor surface were capped by a 5 min injection of 1M ethanolamine HCl (pH 8.0) at a flow rate of 5 μL/min. A reference surface was similarly created by immobilizing a nonspecific protein (IgG b12 anti-HIV-1 gp120; was obtained through the NIH AIDS Reagent Program, Division of AIDS, NIAID, NIH: Anti-HIV-1 gp120 Monoclonal (IgG1 b12) from Dr. Dennis Burton and Carlos Barbas) and was used as a background to correct nonspecific binding. […] Data were analyzed using the ProteOn Manager Software version 3.0 (Bio-Rad). The responses from the reference flow cell were subtracted to account for the nonspecific binding and injection artifacts. Experimental data were fitted to a simple 1:1 binding model. Experiments were performed in triplicate to detect kinetic and equilibrium dissociation constants (KD).

For data set [3], the target named is T1, ACSS2. The experiment in a line: Fluorescence polarization-based ACSS2 biochemical assay (ATP to AMP conversion). Conditions: 100 nM ACSS2, triplicate, ± SD; read-out: IC50, inhibition of ATP to AMP conversion of ACSS2. As to the method:
ACSS2 enzyme activity was measured using the TranScreener AMP^2/GMP^2 Assay Kit—FP Readout assay (BellBrook Labs). The assay was performed in white, opaque, 96-well plates. […] ACSS2 was used in assay buffer (30 mM HEPES, pH 7.4, 140 mM NaCl, 2 mM MgCl2, 5 mM sodium acetate, 2 mM DTT, 0.05% CHAPS). Substrate mix was added, followed by a 60-min incubation. Final substrate concentrations were 5 mM acetate, 50 μM ATP, and 5 μM CoA. After incubation, conjugated AMP antibody and AMP tracer were added according to the methods described by BellBrook Labs. After 30 min, the FP signal was measured using a Tecan Spark multimode microplate reader. In the analysis, data were normalized to represent the percentage inhibition of ATPase activity.
On the technique in general: Polarisation of emitted light reports the rotation of a fluorescent probe.

The subject of the next data set is MDR1 (P-gp). As to the kind of experiment: Bi-directional permeability across MDR1-MDCK cell monolayer (BBB assay). In kind it is in vitro ADME, canine. Conditions: dog; MDR1-MDCK I monolayer, A to B. An excerpt: This assay provides the apparent permeability coefficient (Papp), efflux ratio, and % recovery to assess compound permeation.
A further data set has as its system FASN. As to the kind of experiment: Immunoblot of FASN protein levels. In kind it is cell-based. The conditions noted are these: MDA-MB-231BR cells, 24 h. As to the method: Immunoblotting protocols have been previously described. Briefly, cell lysates from one to five x 10^6 cells were prepared in radioimmune precipitation assay buffer (150 mM NaCl, 1% NP40, 0.5% DOC, 50 mM Tris HCL at pH 8, 0.1% SDS, 10% glycerol, 5 mM EDTA, 20 mM NaF, and 1 mM Na3VO4) supplemented with 1 μg/mL each of pepstatin, leupeptin, aprotinin, and 200 μg/mL PMSF. Lysates were cleared by centrifugation at 16,000 x g for 15 min at 4°C and analyzed by SDS-PAGE and autoradiography with chemiluminescence. Proteins were analyzed by immunoblotting using primary antibodies indicated above.
Background: In western blotting, separated proteins are transferred to a membrane and probed.

Where [4] appears, read: 25°C, Langmuir isotherm equilibrium fit, n=3, read-out: KD equilibrium.
[5] abbreviates: global fit, n=3, read-out: KD kinetic/global.

SMILES strings stand for the structures. Like-named read-outs stand apart in the source and are kept apart here.

T1 sequence (Q9NR19 whole entry): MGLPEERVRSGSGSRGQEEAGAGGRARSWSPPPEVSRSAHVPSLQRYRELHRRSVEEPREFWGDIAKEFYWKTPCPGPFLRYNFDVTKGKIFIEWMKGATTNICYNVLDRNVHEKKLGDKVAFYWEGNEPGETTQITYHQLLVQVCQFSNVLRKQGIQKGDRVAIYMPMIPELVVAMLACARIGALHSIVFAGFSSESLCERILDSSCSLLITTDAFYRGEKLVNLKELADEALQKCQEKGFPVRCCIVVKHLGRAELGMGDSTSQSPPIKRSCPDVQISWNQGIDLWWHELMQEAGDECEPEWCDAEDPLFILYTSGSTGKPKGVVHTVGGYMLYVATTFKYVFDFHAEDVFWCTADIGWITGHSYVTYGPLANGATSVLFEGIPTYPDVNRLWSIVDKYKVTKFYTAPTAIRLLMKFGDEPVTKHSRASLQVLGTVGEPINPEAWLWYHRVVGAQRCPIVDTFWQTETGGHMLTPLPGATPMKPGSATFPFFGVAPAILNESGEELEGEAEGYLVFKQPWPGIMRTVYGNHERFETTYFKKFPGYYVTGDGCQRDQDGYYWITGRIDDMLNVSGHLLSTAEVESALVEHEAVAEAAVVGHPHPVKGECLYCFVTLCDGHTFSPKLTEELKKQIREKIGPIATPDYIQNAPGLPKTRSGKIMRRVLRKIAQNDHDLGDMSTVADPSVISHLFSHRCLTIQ

Turning to `C[C@H](N)C(=O)N1CCCC(c2ccccc2)(c2ccccc2)C1` [AD-1363], the clonogenic survival entry with MDA-MB-231BR cells is given as “significant reduction in clonogenic survival”.
Still for that read-out and setting: for `O=C(CCN1CCCC(c2ccccc2)(c2ccccc2)C1)NC1CC1` [AD-2441] the value was “significantly reduce clonogenic survival”.
On to `Cc1cccn2c(CC(=O)NCCC(c3ccccc3)c3ccco3)cnc12` (stereo not shown) [AD-3766], for which, in data set [1] (human liver microsomes), the “Remaining (T=60min)” value worked out at 0.0005 and the “Remaining (NCF=60min)” value was found to be 0.9639. Also, in data set [1] (human, liver microsomes), the intrinsic metabolic clearance (CLint scaled) was 1360 mL/min/kg, the “Human Liver Microsome Stability T1/2” value was 54 s, the microsomal CLint worked out at 1520 µL/min/mg and the half-life was 54.8 s. Besides, in the data set with MDA-MB-231BR cells, the clonogenic survival result was “significant reduction in clonogenic survival”. Also, at ACSS2 [2] (n=3, read-out: koff), the koff came to 0.359 s⁻¹. In addition, the kon on ACSS2 [2] (n=3, read-out: kon) was 5010 M⁻¹ s⁻¹. The Kd on ACSS2 [2] (setting [4]) worked out at 70.6 µM. Further, the Kd at ACSS2 [2] (setting [5]) is 77.6 µM.
Regarding `CN1CCC(O)(C(=O)NCCc2ccccc2Oc2ccccc2)CC1` [AD-7346], the IC50 at ACSS2 [3] worked out at 2.03 ± 0.21 µM. The koff at ACSS2 [2] (n=3, read-out: koff) was determined as 0.399 s⁻¹. Further, the kon at ACSS2 [2] (n=3, read-out: kon) was 10100 M⁻¹ s⁻¹. The Kd on ACSS2 [2] (setting [4]) was found to be 39.8 µM; at ACSS2 [2] (setting [5]) it was 49.4 µM.
For the molecule `O=C(O)Cc1ccccc1Nc1c(Cl)cccc1Cl` [Diclofenac, reference compound], in data set [1] (human liver microsomes), the “Remaining (T=60min)” value is listed as 0.00044 and the “Remaining (NCF=60min)” value is reported as 0.8763. In data set [1] (human, liver microsomes), this molecule registered a CLint scaled of 236 mL/min/kg, a microsomal CLint of 262 µL/min/mg and a half-life of 318 s.
`COCCc1ccc(OCC(O)CNC(C)C)cc1` (stereo not shown) [Metoprolol, reference compound] showed a Papp A→B in the data set on MDR1 (P-gp) of 12.9 ×10⁻⁶ cm/s.
For `C[C@]12CC[C@H]3[C@@H](CCC4=CC(=O)CC[C@@]43C)[C@@H]1CC[C@@H]2O` [Testosterone, reference compound], in data set [1] (human liver microsomes), the “Remaining (T=60min)” value was determined as 0.06959 and the “Remaining (NCF=60min)” value is 0.8976. The “CLint(liver)” value in data set [1] (human liver microsomes, scaled) is reported as 80.3781 mL/min/kg.
Turning to `COCCNC(=O)Nc1ccc2nc(-c3cccs3)c(-c3cccs3)nc2c1` [VY-3-249, reference compound], the IC50 on ACSS2 [3] stood at 1.2 ± 0.49 µM. Besides, the “protein levels of FASN” value in the data set on FASN is recorded as “reduced protein levels of FASN”. For the same molecule, in the data set on MDA-MB-231BR cells, the clonogenic survival result is “significantly reduce clonogenic survival”. Also, on ACSS2 [2] (n=3), the koff is 0.105 s⁻¹ and the on-rate constant (kon) turned out to be 1800 M⁻¹ s⁻¹. For the same molecule, on ACSS2 [2] (setting [4]), the Kd is 53.2 µM. For the same molecule, the Kd on ACSS2 [2] (setting [5]) turned out to be 66 µM.
